In patent US9187424B1, “Aryl dihydropyridinones and piperidinone MGAT2 inhibitors” (Bristol-Myers Squibb Company, priority 2011, dated 2015):

Columns and labels:
Human MGAT-2 [1] = molecular target: T1, Human MGAT-2 (Homo sapiens (Human), UniProt Q3SYC2); assay: MGAT SPA Assay; assay type: biochemical; details: membranes from Sf9 cells expressing recombinant human MGAT2; 2-monooleoylglycerol and [3H]-oleoyl-CoA;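 note: inhibition scaled between DMSO vehicle as full MGAT2 activity and membranes of uninfected Sf9 cells as blank, IC50 fitted by logistic curve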
T1 sequence (Q3SYC2 whole entry): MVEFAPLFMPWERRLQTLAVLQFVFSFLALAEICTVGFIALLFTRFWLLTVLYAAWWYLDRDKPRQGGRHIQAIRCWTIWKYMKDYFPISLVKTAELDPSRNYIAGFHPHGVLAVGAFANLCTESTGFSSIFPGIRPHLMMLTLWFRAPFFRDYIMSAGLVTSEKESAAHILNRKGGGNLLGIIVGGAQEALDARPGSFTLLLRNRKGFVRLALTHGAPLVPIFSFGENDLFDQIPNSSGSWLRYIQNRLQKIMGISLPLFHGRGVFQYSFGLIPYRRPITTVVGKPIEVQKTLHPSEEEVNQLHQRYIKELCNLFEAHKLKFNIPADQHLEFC

Human MGAT-2 [2] = molecular target: T1, Human MGAT-2; assay: MGAT LCMS Assay (human MGAT-2); assay type: biochemical; details: human MGAT-2 membranes expressed in Sf9 cells; 2-oleoylglycerol and oleoyl-Coenzyme A; read-out: h-MGAT2 IC50 (nM) LCMS Assay;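 note: diolein product quantified by LC/MS with positive APCI, expressed as peak area ratio versus an internal standard, and this ratio used to derive IC50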

| SMILES | IC50 (Human MGAT-2 [1]) [nM] | IC50 (Human MGAT-2 [2]) [nM] |
| --- | --- | --- |
| COc1ccc(C2(C(F)(F)F)CC(c3ccc(C)cc3)=C(c3nnn[nH]3)C(=O)N2)cc1 (stereo not drawn) [Example 38] | 2140 |  |
| Cc1ccc(C2=C(C#N)C(=O)NC(c3ccc(Oc4ccccc4)nc3)(C(F)(F)F)C2)cc1 (stereo not drawn) [Example 44] | 1460 |  |
| N#CC1=C(c2cccc(C#N)c2)CC(c2ccc(OCCCC(F)(F)F)cc2)(C(F)(F)F)NC1=O (stereo not drawn) [Example 69] | 9230 | 983 |
| COc1ccc(NC(=O)C2C(=O)N[C@@](c3ccc(OCCCC(F)(F)F)cc3)(C(F)(F)F)CC2c2ccc(C)cc2)cc1 (single isomer, unassigned) [Example 16-1, N-(4-Methoxyphenyl)-2-oxo-4-p-tolyl-6-(4-(4,4,4-trifluorobutoxyl)phenyl)-6-(trifluoromethyl)piperidine-3-carboxamide] | 25 | 7 |
| Cc1ccc(NC(=O)C2=C(c3ccc(C)cc3)CC(c3ccc(OCCCC(F)(F)F)cc3)(C(F)(F)F)NC2=O)cc1 (stereo not drawn) [Example 82] | 133 | 2 |
| Cc1ccc(C2=C(NC(=O)c3cc(F)ccc3Cl)C(=O)NC(c3ccc(OCCCC(F)(F)F)cc3)(C(F)(F)F)C2)cc1 (stereo not drawn) [Example 171] | 724 | 57 |
| Cc1ccc(C2=C(C(=O)Nc3ccc(C)c(F)c3)C(=O)NC(c3ccc(OCCCC(F)(F)F)cc3)(C(F)(F)F)C2)cc1 (stereo not drawn) [Example 85] | 1460 | 7 |
| COc1cnc(NC(=O)C2=C(c3ccc(C)cc3)CC(c3ccc(OCCCCC(F)(F)F)cc3)(C(F)(F)F)NC2=O)cn1 (stereo not drawn) [Example 273] | 21 | 10 |
| COc1ccc(C2(C(F)(F)F)CC(c3ccc(C)cc3)=C(C(=O)Nc3ccc(F)cc3)C(=O)N2)cc1 (stereo not drawn) [Example 41] | 170 | 15 |
| Cc1ccc(C2=C(C(=O)Nc3ccccc3Cl)C(=O)NC(c3ccc(OCCCC(F)(F)F)cc3)(C(F)(F)F)C2)cc1 (stereo not drawn) [Example 60] | 441 | 12 |
| Cc1ccc(C2=C(C(=O)Nc3ccc(-c4nnn[nH]4)nc3)C(=O)NC(c3ccc(OCCCC(F)(F)F)cc3)(C(F)(F)F)C2)cc1 (stereo not drawn) [Example 111] | 9 | 7 |
| COc1ccc(C2=C(c3nn[nH]n3)C(=O)NC(c3ccc(OCCCC(F)(F)F)cc3)(C(F)(F)F)C2)c(F)c1 (stereo not drawn) [Example 95] | 95 | 43 |
| CCCCCCCNC(=O)C1(C)CC(c2ccc(C)cc2)=C(C(=O)Nc2ccc(OC)cc2)C(=O)N1 (stereo not drawn) [Example 166] | 237 | 102 |
| Cc1ccc(C2=C(NC(=O)c3cc(Br)no3)C(=O)NC(c3ccc(OCCCC(F)(F)F)cc3)(C(F)(F)F)C2)cc1 (stereo not drawn) [Example 179] | 24 | 2 |
| N#CC1=C(c2cccc(Cl)c2)CC(c2ccc(OCCCC(F)(F)F)cc2)(C(F)(F)F)NC1=O (stereo not drawn) [Example 68] | 7520 | 1280 |
| Cc1ccc(C2=C(C(=O)Nc3nn[nH]n3)C(=O)NC(c3cccc(C4=CCCCC4)c3)(C(F)(F)F)C2)cc1 (stereo not drawn) [Example 127] | 655 | 10 |
| Cc1ccc(C2=C(C(=O)Nc3nn[nH]n3)C(=O)NC(c3ccc(C4=CCCC4)cc3)(C(F)(F)F)C2)cc1 (stereo not drawn) [Example 126] | 1870 | 33 |
| Cc1ccc(C2=C(C#N)C(=O)NC(c3ccc(OCCOC(C)(C)C)cc3)(C(F)(F)F)C2)cc1 (stereo not drawn) [Example 34] | 656 | 126 |
| COc1ccc(C2=C(n3cnnn3)C(=O)NC(c3ccc(OCCCC(F)(F)F)cc3)(C(F)(F)F)C2)c(F)c1 (stereo not drawn) [Example 142] | 93 | 10 |
| Cc1ccc(C2=C(C(=O)Nc3ccno3)C(=O)NC(c3ccc(OCCC(F)(F)F)cc3)(C(F)(F)F)C2)cc1 (stereo not drawn) [Example 130] | 20 | 1 |
| Cc1ccc(C2=C(C(=O)NCc3ccccc3)C(=O)NC(c3ccc(OCCCC(F)(F)F)cc3)(C(F)(F)F)C2)cc1 (stereo not drawn) [Example 56] | 6550 |  |
| CC(C)(C)c1ccc(C2=C(C#N)C(=O)NC(C)(c3ccc(C(C)(C)C)cc3)C2)cc1 (stereo not drawn) [Example 20] | 3460 |  |
| Cc1ccc(C2=C(C(=O)Nc3ccc(F)cc3)C(=O)NC(c3ccc(Oc4ccncn4)cc3)(C(F)(F)F)C2)cc1 (stereo not drawn) [Example 49] | 127 | 64 |
| CCCCCNC(=O)C1=C(c2ccc(C)cc2)CC(c2ccc(OCCCC(F)(F)F)cc2)(C(F)(F)F)NC1=O (stereo not drawn) [Example 55] | 846 | 20 |
| COc1ccc(NC(=O)C2=C(c3ccc(C)cc3C)CC(c3ccc(OCCCC(F)(F)F)cc3)(C(F)(F)F)NC2=O)cc1 (stereo not drawn) [Example 148] | 102 | 9 |
| COc1ccc(NC(=O)C2=C(c3ccc(C)cc3)C(F)(F)C(c3ccc(OCCC(F)(F)F)cc3)(C(F)(F)F)NC2=O)cc1 (stereo not drawn) [Example 133] | 1520 | 127 |
| CCOc1ccc(C2=C(C#N)C(=O)NC(C)(c3ccc(OCC)cc3)C2)cc1 (stereo not drawn) [Example 19] | 2900 |  |
| Cc1ccc(C2=C(C(=O)Nc3ccc(Cl)cc3)C(=O)NC(c3ccc(OCCCC(F)(F)F)cc3)(C(F)(F)F)C2)cc1 (stereo not drawn) [Example 62] | 156 | 24 |
